Measured values published in US12459951B2, “Compounds that interact with RAS superfamily proteins for treatment of cancers, inflammatory diseases, rasopathies, and fibrotic disease” (SHY Therapeutics, LLC, priority 2022, dated 2025).

Tested on: Smad2/Smad3 phosphorylation
Experiment: Phospho-Smad2/3 Inhibition Assay (western blot), Panc-1
Format: cell-based, human
Details: at 10 μM, Panc-1 pancreatic cancer cell line; starred symbols = activation
Outline: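 Panc-1 cells (KRas G12D), starved overnight in 0.5% FBS, treated 3 h at 37° C with compound at 10 μM final (0.3% DMSO) or serial dilutions for IC50, then stimulated with 10 ng/ml TGF-b1 for 1 h. Phospho-Smad2 (Ser465/467) and phospho-Smad3 (Ser423/425) detected by western blot.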

Structure (SMILES)	% inh of Smad2/3 phosphorylation in Panc-1
CO[C@H]1CC[C@H](Nc2nc(-c3nccn3C)nn3cc(-c4ccn(C)n4)c(C(=O)NCCN4CCOCC4)c23)C1 (racemic) [Compound 185, rac 4-(((1S,3S)-3-methoxycyclo-pentyl)amino)-2-(1-methyl-1H-imidazol-2-yl)-6-(1-methyl-1H-pyrazol-3-yl)-N-(2-morpholino-ethyl)pyrrolo[2,1-f][1,2,4]triazine-5-carboxamide]	B* (B* = 26-45% activation)
Cc1c(-c2ccn(C)n2)cn2nc(-c3nccn3C)nc(Nc3cc(C(C)(C)O)ccn3)c12 [Compound 240, 2-(2-((5-Methyl-2-(1-methyl-1H-imidazol-2-yl)-6-(1-methyl-1H-pyrazol-3-yl)pyrrolo[2,1-f][1,2,4]triazin-4-yl)amino)pyridin-4-yl)propan-2-ol]	0 (0 = 0% inhibition)
COc1cc(Nc2nc(-c3nccn3C)nn3cc(-c4ccn(C)n4)c(C)c23)ncc1C [Compound 235, N-(4-Methoxy-5-methylpyridin-2-yl)-5-methyl-2-(1-methyl-1H-imidazol-2-yl)-6-(1-methyl-1H-pyrazol-3-yl)pyrrolo[2,1-f][1,2,4]triazin-4-amine]	0 (0 = 0% inhibition)
Cc1c(-c2ccn(C)n2)cn2nc(-c3nccn3C)nc(Nc3ccc(OC(F)(F)F)cn3)c12 [Compound 232, 5-Methyl-2-(1-methyl-1H-imidazol-2-yl)-6-(1-methyl-1H-pyrazol-3-yl)-N-(5-(trifluoro-methoxy)pyridin-2-yl)pyrrolo[2,1-f][1,2,4]triazin-4-amine]	B (B = 26-45% inhibition)
CCNC(=O)c1c(-c2ccn(C)n2)cn2nc(-c3nccn3C)nc(Nc3cc(OC)ccn3)c12 [Compound 173, N-Ethyl-4-((4-methoxypyridin-2-yl)amino)-2-(1-methyl-1H-imidazol-2-yl)-6-(1-methyl-1H-pyrazol-3-yl)pyrrolo[2,1-f][1,2,4]triazine-5-carboxamide]	D* (D* = 76-100% activation)
CCOc1ccc(Nc2nc(-c3nccn3C)nn3cc(-c4ccn(C)n4)c(C)c23)nc1 [Compound 229, N-(5-Ethoxypyridin-2-yl)-5-methyl-2-(1-methyl-1H-imidazol-2-yl)-6-(1-methyl-1H-pyrazol-3-yl)pyrrolo[2,1-f][1,2,4]triazin-4-amine]	A* (A* = 1-25% activation)
Cc1c(-c2ccn(C)n2)cn2nc(-c3nccn3C)nc(Nc3ccc(C(C)(C)O)cn3)c12 [Compound 241, 2-(6-((5-Methyl-2-(1-methyl-1H-imidazol-2-yl)-6-(1-methyl-1H-pyrazol-3-yl)pyrrolo[2,1-f][1,2,4]triazin-4-yl)amino)pyridin-3-yl)propan-2-ol]	C* (C* = 46-75% activation)
Cc1ccc(Nc2nc(-c3nccn3C)nn3cc(-c4ccn(C)n4)c(C)c23)nc1 [Compound 226, 5-Methyl-2-(1-methyl-1H-imidazol-2-yl)-6-(1-methyl-1H-pyrazol-3-yl)-N-(5-methylpyridin-2-yl)pyrrolo[2,1-f][1,2,4]triazin-4-amine]	D (D = 76-100% inhibition)
Cc1c(-c2ccn(C)n2)cn2nc(-c3nccn3C)nc(Nc3ccc(N4CCCC4)cn3)c12 [Compound 228, 5-Methyl-2-(1-methyl-1H-imidazol-2-yl)-6-(1-methyl-1H-pyrazol-3-yl)-N-(5-(pyrrolidin-1-yl)pyridin-2-yl)pyrrolo[2,1-f][1,2,4]triazin-4-amine]	0 (0 = 0% inhibition)
Cc1c(-c2ccn(C)n2)cn2nc(-c3nccn3C)nc(Nc3ccc(N(C)C)cn3)c12 [Compound 227, N5,N5-Dimethyl-N2-(5-methyl-2-(1-methyl-1H-imidazol-2-yl)-6-(1-methyl-1H-pyrazol-3-yl)pyrrolo[2,1-f][1,2,4]triazin-4-yl)pyridine-2,5-diamine]	C (C = 46-75% inhibition)
COc1cc(Nc2nc(-c3nccn3C)nn3cc(-c4ccn(C)n4)c(C)c23)ncc1F [Compound 237, N-(5-Fluoro-4-methoxypyridin-2-yl)-5-methyl-2-(1-methyl-1H-imidazol-2-yl)-6-(1-methyl-1H-pyrazol-3-yl)pyrrolo[2,1-f][1,2,4]triazin-4-amine]	A (A = 1-25% inhibition)
Cc1c(-c2ccn(C)n2)cn2nc(-c3nccn3C)nc(Nc3ccc(OCC(F)(F)F)cn3)c12 [Compound 230, 5-Methyl-2-(1-methyl-1H-imidazol-2-yl)-6-(1-methyl-1H-pyrazol-3-yl)-N-(5-(2,2,2-trifluoroethoxy)pyridin-2-yl)pyrrolo[2,1-f][1,2,4]triazin-4-amine]	D (D = 76-100% inhibition)
Cc1c(-c2ccn(C)n2)cn2nc(-c3nccn3C)nc(Nc3ccc(C(F)F)cn3)c12 [Compound 234, N-(5-(Difluoromethyl)pyridin-2-yl)-5-methyl-2-(1-methyl-1H-imidazol-2-yl)-6-(1-methyl-1H-pyrazol-3-yl)pyrrolo[2,1-f][1,2,4]triazin-4-amine]	D (D = 76-100% inhibition)
COc1ccnc(Nc2nc(-c3nccn3C)nn3cc(-c4ccn(C)n4)c(C(=O)NC4CC4)c23)c1 [Compound 175, N-Cyclopropyl-4-((4-methoxypyridin-2-yl)amino)-2-(1-methyl-1H-imidazol-2-yl)-6-(1-methyl-1H-pyrazol-3-yl)pyrrolo[2,1-f][1,2,4]triazine-5-carboxamide]	B* (B* = 26-45% activation)
COCCCNC(=O)c1c(-c2ccn(C)n2)cn2nc(-c3nccn3C)nc(N[C@H]3CC[C@H](OC)C3)c12 (racemic) [Compound 184, rac 4-(((1S,3S)-3-methoxycyclo-pentyl)amino)-N-(3-methoxypropyl)-2-(1-methyl-1H-imidazol-2-yl)-6-(1-methyl-1H-pyrazol-3-yl)pyrrolo[2,1-f][1,2,4]triazine-5-carboxamide]	B* (B* = 26-45% activation)
Cc1c(-c2ccn(C)n2)cn2nc(-c3nccn3C)nc(Nc3cc(OCCNC(=O)CCCC[C@H]4SC[C@H]5NC(=O)N[C@H]54)ccn3)c12 [Compound 186, N-(2-((2-((5-Methyl-2-(1-methyl-1H-imidazol-2-yl)-6-(1-methyl-1H-pyrazol-3-yl)pyrrolo[2,1-f][1,2,4]triazin-4-yl)amino)pyridin-4-yl)oxy)ethyl)-5-((3aR,4R,6aS)-2-oxohexahydro-1H-thieno[3,4-d]imidazol-4-yl)pentanamide]	D* (D* = 76-100% activation)
Cc1c(-c2ccn(C)n2)cn2nc(-c3nccn3C)nc(Nc3ccc(OC(F)F)cn3)c12 [Compound 231, N-(5-(Difluorometh-oxy)pyridin-2-yl)-5-methyl-2-(1-methyl-1H-imidazol-2-yl)-6-(1-methyl-1H-pyrazol-3-yl)pyrrolo[2,1-f][1,2,4]triazin-4-amine]	D (D = 76-100% inhibition)
Cc1c(-c2ccn(C)n2)cn2nc(-c3nccn3C)nc(N)c12 [Compound 211, 5-Methyl-2-(1-methyl-1H-imidazol-2-yl)-6-(1-methyl-1H-pyrazol-3-yl)pyrrolo[2,1-f][1,2,4]triazin-4-amine]	D (D = 76-100% inhibition)
CO[C@H]1C[C@H](Nc2nc(-c3nccn3C)nn3cc(-c4cccnc4)c(-c4cccnc4)c23)C1 [Compound 171, N-((1r,3r)-3-Methoxycyclobutyl)-2-(1-methyl-1H-imidazol-2-yl)-5,6-di(pyridin-3-yl)pyrrolo[2,1-f][1,2,4]triazin-4-amine]	B (B = 26-45% inhibition)
COc1ccc(N(C)c2nc(-c3nccn3C)nn3cc(-c4ccn(C)n4)c(C)c23)nc1 [Compound 225, N-(5-Methoxypyridin-2-yl)-N,5-dimethyl-2-(1-methyl-1H-imidazol-2-yl)-6-(1-methyl-1H-pyrazol-3-yl)pyrrolo[2,1-f][1,2,4]triazin-4-amine]	0 (0 = 0% inhibition)
COc1ccnc(Nc2nc(-c3nccn3C)nn3cc(-c4ccn(C)n4)c(C(=O)NCC(F)(F)F)c23)c1 [Compound 174, 4-((4-Methoxypyridin-2-yl)amino)-2-(1-methyl-1H-imidazol-2-yl)-6-(1-methyl-1H-pyrazol-3-yl)-N-(2,2,2-trifluoro-ethyl)pyrrolo[2,1-f][1,2,4]triazine-5-carboxamide]	A* (A* = 1-25% activation)
COc1ccc(Nc2nc(-c3nccn3C)nn3cc(-c4ccn(C)n4)c(C)c23)nc1 [Compound 224, N-(5-Methoxypyridin-2-yl)-5-methyl-2-(1-methyl-1H-imidazol-2-yl)-6-(1-methyl-1H-pyrazol-3-yl)pyrrolo[2,1-f][1,2,4]triazin-4-amine]	0 (0 = 0% inhibition)
CO[C@H]1CC[C@H](Nc2nc(-c3nccn3C)nn3cc(-c4ccn(C)n4)c(C(=O)NC4CC4)c23)C1 (racemic) [Compound 182, rac N-Cyclopropyl-4-(((1S,3S)-3-methoxycyclo-pentyl)amino)-2-(1-methyl-1H-imidazol-2-yl)-6-(1-methyl-1H-pyrazol-3-yl)pyrrolo[2,1-f][1,2,4]triazine-5-carboxamide]	A* (A* = 1-25% activation)
Cc1c(-c2ccn(C)n2)cn2nc(-c3nccn3C)nc(Nc3ccc(-n4ccnc4)cn3)c12 [Compound 242, N-(5-(1H-Imidazol-1-yl)pyridin-2-yl)-5-methyl-2-(1-methyl-1H-imidazol-2-yl)-6-(1-methyl-1H-pyrazol-3-yl)pyrrolo[2,1-f][1,2,4]triazin-4-amine]	A (A = 1-25% inhibition)
